According to publication PMC7576493, “Novel ANO1 Inhibitor from Mallotus apelta Extract Exerts Anticancer Activity through Downregulation of ANO1” (International Journal of Molecular Sciences, 2020):
pIC50: −log10 of the molar value.

Tests used:
Anoctamin1 (ANO1) [1] = biological target: T1, Anoctamin1 (ANO1) (Homo sapiens, UniProt Q5XXA6); test: YFP (F46L/H148Q/I152L) quenching iodide influx assay in FRT cells expressing human ANO1; […] inhibition at […]; format: cell-based
T1 sequence (Q5XXA6 1-986): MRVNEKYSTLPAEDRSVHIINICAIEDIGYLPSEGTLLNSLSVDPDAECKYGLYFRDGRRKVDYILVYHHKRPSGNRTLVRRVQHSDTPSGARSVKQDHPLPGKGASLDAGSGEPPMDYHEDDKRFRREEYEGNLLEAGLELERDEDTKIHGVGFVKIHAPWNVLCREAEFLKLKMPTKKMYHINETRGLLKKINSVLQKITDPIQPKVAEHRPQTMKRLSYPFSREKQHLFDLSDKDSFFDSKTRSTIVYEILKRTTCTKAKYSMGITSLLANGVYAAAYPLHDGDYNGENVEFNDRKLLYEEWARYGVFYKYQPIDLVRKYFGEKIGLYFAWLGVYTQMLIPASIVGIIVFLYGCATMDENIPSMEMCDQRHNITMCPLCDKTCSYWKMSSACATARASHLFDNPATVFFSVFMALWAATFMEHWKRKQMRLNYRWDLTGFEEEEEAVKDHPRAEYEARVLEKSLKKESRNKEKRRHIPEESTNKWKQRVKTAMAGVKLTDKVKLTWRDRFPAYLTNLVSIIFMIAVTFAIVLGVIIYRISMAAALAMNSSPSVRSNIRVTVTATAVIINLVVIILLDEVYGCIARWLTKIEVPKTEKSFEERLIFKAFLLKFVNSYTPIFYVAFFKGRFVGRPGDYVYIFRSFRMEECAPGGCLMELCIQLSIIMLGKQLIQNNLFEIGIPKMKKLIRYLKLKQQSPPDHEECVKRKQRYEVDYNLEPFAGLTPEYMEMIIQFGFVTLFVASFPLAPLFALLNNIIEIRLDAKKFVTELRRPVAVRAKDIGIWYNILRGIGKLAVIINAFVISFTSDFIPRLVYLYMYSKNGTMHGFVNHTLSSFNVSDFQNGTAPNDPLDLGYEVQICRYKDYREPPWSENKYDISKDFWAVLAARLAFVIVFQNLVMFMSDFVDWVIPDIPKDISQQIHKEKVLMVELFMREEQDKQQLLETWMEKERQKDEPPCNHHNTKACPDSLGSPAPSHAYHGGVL

Anoctamin1 (ANO1) [2] = biological target: T1, Anoctamin1 (ANO1); test: apical membrane (short-circuit) current in FRT cells expressing human ANO1; also YFP quenching assay; format: cell-based

Compound | inhibition at 25 µM (Anoctamin1 (ANO1) [1]) | pIC50 (Anoctamin1 (ANO1) [2])
COc1cc2c(c(OC)c1C(=O)/C=C/c1ccccc1)C=CC(C)(C)O2 [compound 1, Ani-D1] | > 99% | –
COc1cc2c(c(OC)c1C(=O)CC(O)c1ccccc1)C=CC(C)(C)O2 (racemic) [compound 2, Ani-D2] | – | 5.58
